Measurements reported in patent US3948928A, “3-Substituted-1,2-benzisoxazoles and pharmaceutically acceptable acid addition salts thereof” (Dainippon Pharmaceutical Co., Ltd., priority 1972, dated 1976).
Structures can show the parent of a compound that is named as a salt.

Legend:
[1] = tested on: renal hypertensive rats; assay: Anti-hypertensive activity in renal hypertensive rats (plethysmographic tail blood pressure); assay type: in vivo, male Wistar rats
Source text: Male Wistar rats weighing 180 to 200 g and having a blood pressure of 125 to 145 mmHg were anesthetized with ether and the left abdominal wall of rats was cut and thereby the renal artery was laid bare. The origin part of the aorta was stripped off and to the renal artery was fixed a silver clip which was made by two-folding at interval of 0.2 mm a silver thin board having 2.0 mm in width, 6.0 mm in length and 0.3 mm in thickness, and then the abdominal wall was stitched. At 2 months after the operation, the blood pressure of the rats was increased to 150 or more mmHg. The rats thus treated were used in the test as the renal hypertensive rats.
The blood pressure was measured before the administration of test compounds and at 0.5, 1, 3, 5, 7, 9 and 24 hours after the administration of the test compounds.

[2] = tested on: hypothermy induced by reserpine; assay: Anti-reserpine activity: antagonism against the hypothermy induced by reserpine; assay type: in vivo, male dd YS-mice; settings: 100 mg/kg orally; for Inhibition (%): reserpine 5 mg/kg i.p. simultaneously, rectal temperature at 4 hours; for Ratio to AMT: inhibition relative to amitriptyline (AMT)
Procedure: The anti-reserpine activity of the test compounds was studied by the antagonism against the hypothermy induced by reserpine on male dd YS-mice, weighing 18 to 20 g, each group being 5 mice. The test compounds were orally administered in a dose of 100 mg/kg and simultaneously reserpine was intraperitoneally administered in a dose of 5 mg/kg to the mice. The body temperature was measured on the rectal temperature of the mice at 4 hours after the administration of the test compounds by thermister BMG III-130, made by Shibaura Electric Co., Ltd.

[3] = tested on: 1-dopa potentiating activity; assay: 1-Dopa potentiating activity (mortality of mice given 1-dopa); assay type: in vivo, dd YS-mice; settings: one hour before 1-dopa 300 mg/kg i.p.
Procedure: To dd YS-mice, weighing 18 to 20 g (each group being 10 mice) was intraperitoneally administered 300 mg/kg of 1-dopa: 3-(3,4-dihydroxyphenyl)-L-alanine. The mice were entered into a plastic cage having 15 × 15 cm^2 in size and allowed to live gregariously and then the symptom of the mice was observed. The test compounds were orally administered to the mice at one hour before the administration of 1-dopa. The activity of the test compounds was calculated by the mortality.

[4] = tested on: spontaneously hypertensive rats; assay: Anti-hypertensive activity in spontaneously hypertensive rats; assay type: in vivo, male Wistar rats
Procedure: The blood pressure was measured by plethysmographic method, in which the blood pressure was measured indirectly by using a tail of animal without anesthesia. That is, after being warmed at 38°C for 10 minutes, a tail of rat was pressed by cuff and then the pressure was relieved and thereby the blood flow started again to increase the volume of tail. The blood pressure at that time was measured.
Spontaneously hypertensive rats were prepared by using male Wistar rats weighing 300 to 350 g and being 20 or more weeks of age. […] The blood pressure in rats was measured at 0.5, 1, 3, 5, 7, 24 and 30 hours after the administration of the test compounds in the same manner as described in Test 3, (B).

Compound	Inhibition (%) [2] [%]	Ratio to AMT [2]	Blood pressure Decrease percent ([1]; 100 mg/kg p.o.) [%]	Blood pressure Duration ([1]; 100 mg/kg p.o.) [h]	Blood pressure Peak time ([1]; 100 mg/kg p.o.) [h]	further results
1,2-Benzisoxazole-3-acetamidoxime [Example 1]	66.9	1.37				Blood pressure Decrease percent ([1]; 3 mg/kg p.o.): 18.2%; Blood pressure Duration ([1]; 3 mg/kg p.o.): 24 h; Blood pressure Peak time ([1]; 3 mg/kg p.o.): 7 h; Blood pressure Decrease percent ([1]; 10 mg/kg p.o.): 36.3%; Blood pressure Duration ([1]; 10 mg/kg p.o.): 30 h; Blood pressure Peak time ([1]; 10 mg/kg p.o.): 7 h; Blood pressure Decrease percent ([1]; 30 mg/kg p.o.): 38.8%; Blood pressure Duration ([1]; 30 mg/kg p.o.): 48 h; Blood pressure Peak time ([1]; 30 mg/kg p.o.): 3 h; Number of dead mice/number of used mice ([3]; dose 20 mg/kg orally): 1/10; Number of dead mice/number of used mice ([3]; dose 50 mg/kg orally): 3/10; Number of dead mice/number of used mice ([3]; dose 100 mg/kg orally): 7/10; Blood pressure Decrease percent ([4]; 10 mg/kg p.o.): 16%; Blood pressure Duration ([4]; 10 mg/kg p.o.): 24 h; Blood pressure Peak time ([4]; 10 mg/kg p.o.): 5.0 h
6,7-dimethoxy-1,2-benzisoxazole-3-acetamidoxime hydrochloride [Example 7]			21.0	72	5	
NC12CC3CC(CC(C3)C1)C2 [Amantadine, 1-aminoadamantane, reference compound]						Number of dead mice/number of used mice ([3]; dose 100 mg/kg orally): 0/10; Number of dead mice/number of used mice ([3]; dose 200 mg/kg orally): 3/10; Number of dead mice/number of used mice ([3]; dose 300 mg/kg orally): 5/10
CN(C)CCC=C1c2ccccc2CCc2ccccc21 [Amitriptyline, 3-(10,11-Dihydro-5H-dibenzo[a,d]-cyclohepten-5-ylidene)-N,N-dimethylpropylamine, reference compound]	48.9					
Cl.NC(Cc1noc2ccccc12)=NO [Test compound 2 (Table 1), 1,2-Benzisoxazole-3-acetamidoxime hydrochloride]	64.9	1.33				
Cl.N=C(N)Cc1noc2ccccc12 [Test compound 2 (Table 3), 1,2-Benzisoxazole-3-acetamidine hydrochloride]			34.4	30	1 to 3	
NC(Cc1noc2ccccc12)=NOC(=O)c1ccccc1 [Test compound 3 (Table 1), O-Benzoyl-1,2-benzisoxazole-3-acetamidoxime]	57.1	1.17				
Cl.N=C(Cc1noc2ccccc12)NN [Test compound 3 (Table 3), 1,2-Benzisoxazole-3-acetamidrazone hydrochloride]			19.0	24	7	
Cl.NC(Cc1noc2ccc(F)cc12)=NO [Test compound 3 (Table 4), 5-Fluoro-1,2-benzisoxazole-3-acetamidoxime hydrochloride]						Blood pressure Decrease percent ([4]; 1 mg/kg p.o.): 20%; Blood pressure Duration ([4]; 1 mg/kg p.o.): 24 h; Blood pressure Peak time ([4]; 1 mg/kg p.o.): 7 to 8 h; Blood pressure Decrease percent ([4]; 10 mg/kg p.o.): 22%; Blood pressure Duration ([4]; 10 mg/kg p.o.): 24 h; Blood pressure Peak time ([4]; 10 mg/kg p.o.): 7.0 h
Cc1cccc2c(CC3=NCCN3)noc12.Cl [Test compound 4 (Table 1), 7-Methyl-3-(2-imidazolin-2-yl)methyl-1,2-benzisoxazole hydrochloride]	51.9	1.06				
N=C(Cc1noc2ccccc12)N1CCN(c2ccccc2)CC1 [Test compound 4 (Table 3), 1-Phenyl-4-(1,2-benzisoxazole-3-acetimidoyl)piperazine hydrochloride]			10.7	30	3	
Cl.Fc1ccc2onc(CC3=NCCN3)c2c1 [Test compound 4 (Table 4), 5-Fluoro-3-(2-imidazolin-2-yl)methyl-1,2-benzisoxazole hydrochloride]						Blood pressure Decrease percent ([4]; 10 mg/kg p.o.): 28%; Blood pressure Duration ([4]; 10 mg/kg p.o.): 30 h; Blood pressure Peak time ([4]; 10 mg/kg p.o.): 7.0 h
COc1ccc2c(CC(N)=NO)noc2c1.Cl [Test compound 5 (Table 1), 6-Methoxy-1,2-benzisoxazole-3-acetamidoxime hydrochloride]	69.2	1.42				
CNC(=N)Cc1noc2ccccc12 [Test compound 5 (Table 3), 1,2-Benzisoxazole-3-(N-methyl)acetamidine hydrochloride]			19.3	24	3	
Cl.NC(CCc1noc2ccccc12)=NO [Test compound 6 (Table 1), 1,2-Benzisoxazole-3-propionamidoxime hydrochloride]	58.1	1.12				
Cl.Oc1ccc2onc(CC3=NCCN3)c2c1 [Test compound 6 (Table 3), 5-Hydroxy-3-(2-imidazolin-2-yl)methyl-1,2-benzisoxazole hydrochloride]			56.5	30	5	
Cl.Oc1ccc2c(CC3=NCCN3)noc2c1 [Test compound 7 (Table 3), 6-Hydroxy-3-(2-imidazolin-2-yl)methyl-1,2-benzisoxazole hydrochloride]						Blood pressure Decrease percent ([4]; 10 mg/kg p.o.): 14%; Blood pressure Duration ([4]; 10 mg/kg p.o.): 9 h; Blood pressure Peak time ([4]; 10 mg/kg p.o.): 7.0 h
